# From US20240148709A1, “METHODS OF TREATING EYE PAIN AND EYE DISORDERS” (Aisa Pharma, Inc., priority 2022, published 2024)
# Where “and” joins values, the source holds several entries; their conditions need not be identical. Equal values may be shown once.
# System: participants with SSc-RP
# Test: Scleroderma Health Assessment Questionnaire (SHAQ), Phase 2a study Part A
# Type: in vivo, human
# Description: Part A—double-blind, placebo-controlled, parallel-group, dose selection, will assess the safety and efficacy of two doses of cilnidipine (10 mg and 20 mg), alone and in combination with tadalafil. A total of 36 participants will be randomized to one of six prespecified treatment arms. Refer to FIG. 1 for treatment arms in Part A of the study. Dosing last for 12 (±2) days in which participants will self-administer daily doses of assigned treatment in the morning. Each participant will take one capsule and one tablet to blind the active therapy being received.
# The standard, validated, patient reported outcome measures tool for SSc patients, the SHAQ, will be collected at the time points specified in the study schedules (FIG. 2 and FIGS. 3A and 3B) to assess the participant's quality of life. The SHAQ includes a Raynaud's VAS that will also be reported separately.
# Results: Patients in the study were administered the Scleroderma Health Assessment Questionnaire (SHAQ) at the time of study entry and during clinic visits following the treatment period. The study is a two-part, parallel arm design, prospective, double-blind, randomized study conducted in Australia (Flinders Medical Center). 27 patients were randomized into the first phase of the study, following which a DSMB meeting was held, which reviewed data on the primary study endpoint and key Raynaud's secondary endpoints. Data on the SHAQ was not available for the DSMB to review. The mITT population, in which any data was available post treatment was 24 patients was the analysis population for this first part of the study. The second part (i.e., part B) of the study will randomize 36 patients in a double blind, randomized, prospective, placebo controlled, crossover study. In the first part (i.e., Part A) of the study for which data is presented, patients were randomized into 6 groups, cilnidipine at two doses (10 and 20 mg) alone and in combination with tadalafil 5 mg, tadalafil 5 mg alone, and placebo. […] The DSMB recommended that the study proceed into its double blind prospective cross overpowered second phase and compare cilnidipine 20 mg alone to placebo.
# [1] = cilnidipine 20 mg arms (alone or + tadalafil 5 mg)
compound,measurement,setting,value
"COCCOC(=O)C1=C(C)NC(C)=C(C(=O)OC/C=C/c2ccccc2)C1c1cccc([N+](=O)[O-])c1 (stereo not shown) [Cilnidipine, cilnidipine]","SHAQ Visual Analog Scale-Breathing Problems, Change from Baseline, Q3",[1],0.300
same,"SHAQ Visual Analog Scale-Breathing Problems, In Clinic Visit (Day 12), Max",[1],0.50
same,"SHAQ Visual Analog Scale-Breathing Problems, In Clinic Visit (Day 12), Mean (SD)",[1],0.300 (0.2646)
same,"SHAQ Visual Analog Scale-Breathing Problems, In Clinic Visit (Day 12), Median",[1],0.400
same,"SHAQ Visual Analog Scale-Breathing Problems, In Clinic Visit (Day 12), Min",[1],0.00
same,"SHAQ Visual Analog Scale-Breathing Problems, In Clinic Visit (Day 12), Q1",[1],0.000
same,"SHAQ Visual Analog Scale-Breathing Problems, In Clinic Visit (Day 12), Q3",[1],0.500
same,"SHAQ Visual Analog Scale-Breathing Problems, Percent Change from Baseline, Max",[1],150.0%
same,"SHAQ Visual Analog Scale-Breathing Problems, Percent Change from Baseline, Mean (SD)",[1],−5.56 (135.742) %
same,"SHAQ Visual Analog Scale-Breathing Problems, Percent Change from Baseline, Median",[1],−66.67%
same,"SHAQ Visual Analog Scale-Breathing Problems, Percent Change from Baseline, Min",[1],−100.0%
same,"SHAQ Visual Analog Scale-Breathing Problems, Percent Change from Baseline, Q1",[1],−100.00%
same,"SHAQ Visual Analog Scale-Breathing Problems, Percent Change from Baseline, Q3",[1],150.00%
same,"SHAQ Visual Analog Scale-Intestinal Problems, Change from Baseline, Max",[1],0.60
same,"SHAQ Visual Analog Scale-Intestinal Problems, Change from Baseline, Mean (SD)",[1],0.300 (0.3000)
same,"SHAQ Visual Analog Scale-Intestinal Problems, Change from Baseline, Median",[1],0.300
same,"SHAQ Visual Analog Scale-Intestinal Problems, Change from Baseline, Min",[1],0.00
same,"SHAQ Visual Analog Scale-Intestinal Problems, Change from Baseline, Q1",[1],0.000
same,"SHAQ Visual Analog Scale-Intestinal Problems, Change from Baseline, Q3",[1],0.600
same,"SHAQ Visual Analog Scale-Intestinal Problems, In Clinic Visit (Day 12), Max",[1],2.10
same,"SHAQ Visual Analog Scale-Intestinal Problems, In Clinic Visit (Day 12), Mean (SD)",[1],1.133 (1.0599)
same,"SHAQ Visual Analog Scale-Intestinal Problems, In Clinic Visit (Day 12), Median",[1],1.300
same,"SHAQ Visual Analog Scale-Intestinal Problems, In Clinic Visit (Day 12), Min",[1],0.00
same,"SHAQ Visual Analog Scale-Intestinal Problems, In Clinic Visit (Day 12), Q1",[1],0.000
same,"SHAQ Visual Analog Scale-Intestinal Problems, In Clinic Visit (Day 12), Q3",[1],2.100
same,"SHAQ Visual Analog Scale-Intestinal Problems, Percent Change from Baseline, Max",[1],40.0%
same,"SHAQ Visual Analog Scale-Intestinal Problems, Percent Change from Baseline, Mean (SD)",[1],35.00 (7.071) %
same,"SHAQ Visual Analog Scale-Intestinal Problems, Percent Change from Baseline, Median",[1],35.00%
same,"SHAQ Visual Analog Scale-Intestinal Problems, Percent Change from Baseline, Min",[1],30.0%
same,"SHAQ Visual Analog Scale-Intestinal Problems, Percent Change from Baseline, Q1",[1],30.00%
same,"SHAQ Visual Analog Scale-Intestinal Problems, Percent Change from Baseline, Q3",[1],40.00%
same,"SHAQ Visual Analog Scale-Pain, Change from Baseline, Max",[1],−0.50
same,"SHAQ Visual Analog Scale-Pain, Change from Baseline, Mean (SD)",[1],−1.100 (0.7937) and −1.1 (0.79)
same,"SHAQ Visual Analog Scale-Pain, Change from Baseline, Median",[1],−0.800
same,"SHAQ Visual Analog Scale-Pain, Change from Baseline, Min",[1],−2.00
same,"SHAQ Visual Analog Scale-Pain, Change from Baseline, Q1",[1],−2.000
same,"SHAQ Visual Analog Scale-Pain, Change from Baseline, Q3",[1],−0.500
same,"SHAQ Visual Analog Scale-Pain, In Clinic Visit (Day 12), Max",[1],2.10
same,"SHAQ Visual Analog Scale-Pain, In Clinic Visit (Day 12), Mean (SD)",[1],1.067 (0.9074)
same,"SHAQ Visual Analog Scale-Pain, In Clinic Visit (Day 12), Median",[1],0.700
same,"SHAQ Visual Analog Scale-Pain, In Clinic Visit (Day 12), Min",[1],0.40
same,"SHAQ Visual Analog Scale-Pain, In Clinic Visit (Day 12), Q1",[1],0.400
same,"SHAQ Visual Analog Scale-Pain, In Clinic Visit (Day 12), Q3",[1],2.100
same,"SHAQ Visual Analog Scale-Pain, Percent Change from Baseline, Max",[1],−48.8%
same,"SHAQ Visual Analog Scale-Pain, Percent Change from Baseline, Mean (SD)",[1],−52.56 (3.454) %
same,"SHAQ Visual Analog Scale-Pain, Percent Change from Baseline, Median",[1],−53.33%
same,"SHAQ Visual Analog Scale-Pain, Percent Change from Baseline, Min",[1],−55.6%
same,"SHAQ Visual Analog Scale-Pain, Percent Change from Baseline, Q1",[1],−55.56%
same,"SHAQ Visual Analog Scale-Pain, Percent Change from Baseline, Q3",[1],−48.78%
same,"SHAQ Visual Analog Scale-Raynaud's, Change from Baseline, Max",[1],−0.30
same,"SHAQ Visual Analog Scale-Raynaud's, Change from Baseline, Median",[1],−1.100
same,"SHAQ Visual Analog Scale-Raynaud's, Change from Baseline, Min",[1],−2.40
same,"SHAQ Visual Analog Scale-Raynaud's, Change from Baseline, Q1",[1],−2.400
same,"SHAQ Visual Analog Scale-Raynaud's, Change from Baseline, Q3",[1],−0.300
same,"SHAQ Visual Analog Scale-Raynaud's, In Clinic Visit (Day 12), Max",[1],1.40
same,"SHAQ Visual Analog Scale-Raynaud's, In Clinic Visit (Day 12), Mean (SD)",[1],1.033 (0.4041)
same,"SHAQ Visual Analog Scale-Raynaud's, In Clinic Visit (Day 12), Median",[1],1.100
same,"SHAQ Visual Analog Scale-Raynaud's, In Clinic Visit (Day 12), Min",[1],0.60
same,"SHAQ Visual Analog Scale-Raynaud's, In Clinic Visit (Day 12), Q1",[1],0.600
same,"SHAQ Visual Analog Scale-Raynaud's, In Clinic Visit (Day 12), Q3",[1],1.400
same,"SHAQ Visual Analog Scale-Raynaud's, Percent Change from Baseline, Max",[1],−33.3%
same,"SHAQ Visual Analog Scale-Raynaud's, Percent Change from Baseline, Mean (SD)",[1],−48.63 (18.070) %
same,"SHAQ Visual Analog Scale-Raynaud's, Percent Change from Baseline, Median",[1],−44.00%
same,"SHAQ Visual Analog Scale-Raynaud's, Percent Change from Baseline, Min",[1],−68.6%
same,"SHAQ Visual Analog Scale-Raynaud's, Percent Change from Baseline, Q1",[1],−68.57%
same,"SHAQ Visual Analog Scale-Raynaud's, Percent Change from Baseline, Q3",[1],−33.33%
same,"SHAQ alternative disability index, Change from Baseline, Max",[1],0.00
same,"SHAQ alternative disability index, Change from Baseline, Mean (SD)",[1],−0.083 (0.0722)
same,"SHAQ alternative disability index, Change from Baseline, Median",[1],−0.125
same,"SHAQ alternative disability index, Change from Baseline, Min",[1],−0.13
same,"SHAQ alternative disability index, Change from Baseline, Q1",[1],−0.125
same,"SHAQ alternative disability index, Change from Baseline, Q3",[1],0.000
same,"SHAQ alternative disability index, In Clinic Visit (Day 12), Max",[1],0.25
same,"SHAQ alternative disability index, In Clinic Visit (Day 12), Mean (SD)",[1],0.125 (0.1250)
same,"SHAQ alternative disability index, In Clinic Visit (Day 12), Median",[1],0.125
same,"SHAQ alternative disability index, In Clinic Visit (Day 12), Min",[1],0.00
same,"SHAQ alternative disability index, In Clinic Visit (Day 12), Q1",[1],0.000
same,"SHAQ alternative disability index, In Clinic Visit (Day 12), Q3",[1],0.250
same,"SHAQ alternative disability index, Percent Change from Baseline, Max",[1],−33.3%
same,"SHAQ alternative disability index, Percent Change from Baseline, Mean (SD)",[1],−41.67 (11.785) %
same,"SHAQ alternative disability index, Percent Change from Baseline, Median",[1],−41.67%
same,"SHAQ alternative disability index, Percent Change from Baseline, Min",[1],−50.0%
same,"SHAQ alternative disability index, Percent Change from Baseline, Q1",[1],−50.00%
same,"SHAQ alternative disability index, Percent Change from Baseline, Q3",[1],−33.33%
same,mean decrease in patient reported disease severity on the SHAQ,pooled cilnidipine 10 mg or 20 mg (n=7),60%
